{"source": "patent US20190292179A1", "about": "(BRISTOL-MYERS SQUIBB COMPANY, priority 2016, published 2019)", "key": {"HIS-TGFβR2 WT": {"target": "HIS-TGFβR2 WT (Homo sapiens, UniProt P37173)", "sequence (P37173 23-567)": "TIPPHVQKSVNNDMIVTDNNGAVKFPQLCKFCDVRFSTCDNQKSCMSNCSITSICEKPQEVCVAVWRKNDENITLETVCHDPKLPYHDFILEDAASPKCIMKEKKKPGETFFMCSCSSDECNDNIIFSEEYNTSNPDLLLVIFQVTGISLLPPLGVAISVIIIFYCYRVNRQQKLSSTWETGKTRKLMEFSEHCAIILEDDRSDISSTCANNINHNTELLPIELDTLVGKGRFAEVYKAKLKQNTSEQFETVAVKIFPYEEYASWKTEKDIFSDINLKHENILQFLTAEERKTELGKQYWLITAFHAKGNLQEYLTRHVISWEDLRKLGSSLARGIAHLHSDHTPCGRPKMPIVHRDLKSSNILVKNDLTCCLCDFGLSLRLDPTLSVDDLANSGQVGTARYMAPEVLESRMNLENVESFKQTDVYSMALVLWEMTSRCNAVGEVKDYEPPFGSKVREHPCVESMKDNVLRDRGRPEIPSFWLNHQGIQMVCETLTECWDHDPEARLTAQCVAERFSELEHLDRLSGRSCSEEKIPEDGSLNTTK", "test": "HTRF probe-displacement assay with HIS-TGFβR2 WT", "assay_type": "binding", "settings": "1 nM HIS-TGFβR2 WT, labeled probe at Kd, 1 hour at room temperature", "summary_of_the_method": "(§1)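 Binding read as HTRF probe displacement with 1 nM HIS-tagged kinase, 0.2 nM anti-HIS antibody, labelled probe at Kd and 0.5% DMSO, 1 h at room temperature (Ex 340, Em 520/495 nm). Eleven-point dose response normalised to no-enzyme and vehicle controls; IC50 from non-linear regression.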"}, "HIS-TGFβR1 T204D": {"target": "T1, HIS-TGFβR1 T204D (Homo sapiens, UniProt P36897, T204D)", "T1 sequence (P36897 34-503 T204D)": "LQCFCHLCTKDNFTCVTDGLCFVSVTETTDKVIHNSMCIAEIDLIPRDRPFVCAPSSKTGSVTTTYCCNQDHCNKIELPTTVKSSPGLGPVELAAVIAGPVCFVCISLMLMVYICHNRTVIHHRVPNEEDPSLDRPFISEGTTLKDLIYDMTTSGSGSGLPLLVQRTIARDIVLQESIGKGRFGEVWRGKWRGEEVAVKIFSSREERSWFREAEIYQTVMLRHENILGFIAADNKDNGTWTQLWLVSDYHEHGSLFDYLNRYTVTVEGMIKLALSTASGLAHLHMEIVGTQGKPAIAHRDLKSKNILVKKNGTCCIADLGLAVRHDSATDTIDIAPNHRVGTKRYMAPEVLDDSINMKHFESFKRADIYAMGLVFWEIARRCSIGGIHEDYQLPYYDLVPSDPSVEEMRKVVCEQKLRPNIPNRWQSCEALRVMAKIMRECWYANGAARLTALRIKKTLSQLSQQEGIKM", "test": "HTRF probe-displacement assay with HIS-TGFβR1 T204D", "assay_type": "binding", "settings": "1 nM HIS-TGFβR1 T204D, labeled probe at Kd, 1 hour at room temperature", "summary_of_the_method": "as §1"}}, "data": [{"compound": "NC(=O)c1cnc2ccc(-c3c(-c4ccc(F)cc4)nn4c3COCC4)cn12", "note": "[Example 111, 6-(2-(4-fluorophenyl)-6,7-dihydro-4H-pyrazolo[5,1-c][1,4]oxazin-3-yl)imidazo[1,2-a]pyridine-3-carboxamide]", "values": [{"measurement": "IC50", "setting": "HIS-TGFβR2 WT", "result": 0.577, "unit": "µM"}, {"measurement": "IC50", "setting": "HIS-TGFβR1 T204D", "result": 0.002, "unit": "µM"}]}, {"compound": "CC(=O)Nc1cc(-c2c(-c3ccc(F)cc3)nn3c2COCC3)ccn1", "note": "[Example 112, N-(4-(2-(4-fluorophenyl)-6,7-dihydro-4H-pyrazolo[5,1-c][1,4]oxazin-3-yl)pyridin-2-yl)acetamide]", "values": [{"measurement": "IC50", "setting": "HIS-TGFβR2 WT", "result": 0.105, "unit": "µM"}, {"measurement": "IC50", "setting": "HIS-TGFβR1 T204D", "result": 0.011, "unit": "µM"}]}, {"compound": "Cc1cccc(-c2n[nH]c(C(C)C)c2-c2ccc3ncc(C#N)n3c2)n1", "note": "[Example 114, 6-(5-isopropyl-3-(6-methylpyridin-2-yl)-1H-pyrazol-4-yl) imidazo [1,2-a]pyridine-3-carbonitrile]", "values": [{"measurement": "IC50", "setting": "HIS-TGFβR2 WT", "result": 0.761, "unit": "µM"}, {"measurement": "IC50", "setting": "HIS-TGFβR1 T204D", "result": 0.001, "unit": "µM"}]}, {"compound": "Cc1cccc(-c2n[nH]c(C(C)C)c2-c2ccc3ncc(C(N)=O)n3c2)n1", "note": "[Example 115, 6-(5-isopropyl-3-(6-methylpyridin-2-yl)-1H-pyrazol-4-yl)imidazo[1,2-a]pyridine-3-carboxamide]", "values": [{"measurement": "IC50", "setting": "HIS-TGFβR2 WT", "result": 0.009, "unit": "µM"}, {"measurement": "IC50", "setting": "HIS-TGFβR1 T204D", "result": 0.001, "unit": "µM"}]}, {"compound": "Cc1cccc(-c2nn(C)c(C(C)C)c2-c2ccc3ncc(C#N)n3c2)n1", "note": "[Example 116, 6-(5-isopropyl-1-methyl-3-(6-methylpyridin-2-yl)-1H-pyrazol-4-yl)imidazo[1,2-a]pyridine-3-carbonitrile]", "values": [{"measurement": "IC50", "setting": "HIS-TGFβR2 WT", "result": 5.77, "unit": "µM"}, {"measurement": "IC50", "setting": "HIS-TGFβR1 T204D", "result": 0.001, "unit": "µM"}]}, {"compound": "Cc1cccc(-c2n[nH]c(C(C)C)c2-c2ccc3nccn3c2)n1", "note": "[Example 118, 6-(5-isopropyl-3-(6-methylpyridin-2-yl)-1H-pyrazol-4-yl)imidazo[1,2-a]pyridine]", "values": [{"measurement": "IC50", "setting": "HIS-TGFβR2 WT", "result": 2.69, "unit": "µM"}, {"measurement": "IC50", "setting": "HIS-TGFβR1 T204D", "result": 0.001, "unit": "µM"}]}, {"compound": "Cc1cccc(-c2nn(C)c(C(C)C)c2-c2ccc3nccn3c2)n1", "note": "[Example 119, 6-(5-isopropyl-1-methyl-3-(6-methylpyridin-2-yl)-1H-pyrazol-4-yl)imidazo[1,2-a]pyridine]", "values": [{"measurement": "IC50", "setting": "HIS-TGFβR2 WT", "result": 4.95, "unit": "µM"}, {"measurement": "IC50", "setting": "HIS-TGFβR1 T204D", "result": 0.003, "unit": "µM"}]}, {"compound": "Cc1cccc(-c2n[nH]c(C3CC3)c2-c2ccc3ncc(C#N)n3c2)n1", "note": "[Example 121, 6-(5-cyclopropyl-3-(6-methylpyridin-2-yl)-1H-pyrazol-4-yl)imidazo[1,2-a]pyridine-3-carbonitrile]", "values": [{"measurement": "IC50", "setting": "HIS-TGFβR2 WT", "result": 0.216, "unit": "µM"}, {"measurement": "IC50", "setting": "HIS-TGFβR1 T204D", "result": 0.001, "unit": "µM"}]}, {"compound": "Cc1cccc(-c2n[nH]c(C3CC3)c2-c2ccc3ncc(C(N)=O)n3c2)n1", "note": "[Example 122, 6-(5-cyclopropyl-3-(6-methylpyridin-2-yl)-1H-pyrazol-4-yl)imidazo[1,2-a]pyridine-3-carboxamide]", "values": [{"measurement": "IC50", "setting": "HIS-TGFβR2 WT", "result": 0.004, "unit": "µM"}, {"measurement": "IC50", "setting": "HIS-TGFβR1 T204D", "result": 0.001, "unit": "µM"}]}, {"compound": "Cc1cccc(-c2n[nH]c(C3CC3)c2-c2ccc3nccn3c2)n1", "note": "[Example 123, 6-(5-cyclopropyl-3-(6-methylpyridin-2-yl)-1H-pyrazol-4-yl)imidazo[1,2-a]pyridine]", "values": [{"measurement": "IC50", "setting": "HIS-TGFβR2 WT", "result": 0.469, "unit": "µM"}, {"measurement": "IC50", "setting": "HIS-TGFβR1 T204D", "result": 0.001, "unit": "µM"}]}, {"compound": "CCc1[nH]nc(-c2cccc(C)n2)c1-c1ccc2ncc(C#N)n2c1", "note": "[Example 124, 6-(5-ethyl-3-(6-methylpyridin-2-yl)-1H-pyrazol-4-yl)imidazo[1,2-a]pyridine-3-carbonitrile]", "values": [{"measurement": "IC50", "setting": "HIS-TGFβR2 WT", "result": 2.06, "unit": "µM"}, {"measurement": "IC50", "setting": "HIS-TGFβR1 T204D", "result": 0.001, "unit": "µM"}]}, {"compound": "CCc1[nH]nc(-c2cccc(C)n2)c1-c1ccc2ncc(C(N)=O)n2c1", "note": "[Example 125, 6-(5-ethyl-3-(6-methylpyridin-2-yl)-1H-pyrazol-4-yl)imidazo[1,2-a]pyridine-3-carboxamide]", "values": [{"measurement": "IC50", "setting": "HIS-TGFβR2 WT", "result": 0.013, "unit": "µM"}, {"measurement": "IC50", "setting": "HIS-TGFβR1 T204D", "result": 0.001, "unit": "µM"}]}, {"compound": "CCc1[nH]nc(-c2cccc(C)n2)c1-c1ccc2nccn2c1", "note": "[Example 126, 6-(5-ethyl-3-(6-methylpyridin-2-yl)-1H-pyrazol-4-yl)imidazo[1,2-a]pyridine]", "values": [{"measurement": "IC50", "setting": "HIS-TGFβR2 WT", "result": 3.15, "unit": "µM"}, {"measurement": "IC50", "setting": "HIS-TGFβR1 T204D", "result": 0.001, "unit": "µM"}]}, {"compound": "CCc1c(-c2ccc3ncc(C(N)=O)n3c2)c(-c2cccc(C)n2)nn1C", "note": "[Example 127, 6-(5-ethyl-1-methyl-3-(6-methylpyridin-2-yl)-1H-pyrazol-4-yl)imidazo[1,2-a]pyridine-3-carboxamide]", "values": [{"measurement": "IC50", "setting": "HIS-TGFβR2 WT", "result": 0.128, "unit": "µM"}, {"measurement": "IC50", "setting": "HIS-TGFβR1 T204D", "result": 0.001, "unit": "µM"}]}, {"compound": "OCc1[nH]nc(-c2ccc(F)cc2)c1-c1ccc2nccn2c1", "note": "[Example 134, (3-(4-fluorophenyl)-4-(imidazo[1,2-a]pyridin-6-yl)-1H-pyrazol-5-yl)methanol]", "values": [{"measurement": "IC50", "setting": "HIS-TGFβR2 WT", "result": 13.1, "unit": "µM"}, {"measurement": "IC50", "setting": "HIS-TGFβR1 T204D", "result": 0.027, "unit": "µM"}]}, {"compound": "Cc1cccc(-c2n[nH]c(CO)c2-c2ccc3nccn3c2)n1", "note": "[Example 141, (4-(imidazo[1,2-a]pyridin-6-yl)-3-(6-methylpyridin-2-yl)-1H-pyrazol-5-yl)methanol]", "values": [{"measurement": "IC50", "setting": "HIS-TGFβR2 WT", "result": 4.47, "unit": "µM"}, {"measurement": "IC50", "setting": "HIS-TGFβR1 T204D", "result": 0.001, "unit": "µM"}]}]}
